Data published in PMC3922101 (Osong Public Health and Research Perspectives, 2013).

Columns and labels:
Type in all cases: biochemical, influenza A/Chungbuk/4448/2008(H1N1) virus
[1] = biological target: neuraminidase (NA) of recombinant virus Chungbuk-Y275H-N295S-I223V (Influenza A virus (A/Chungbuk/4448/2008(H1N1)), UniProt E3JK96, I223V/N295S/Y275H)
[2] = biological target: neuraminidase (NA) of recombinant virus Chungbuk-Y275-N295S-I117M (Influenza A virus, UniProt E3JK96, I117M/N295S)
[3] = biological target: neuraminidase (NA) of recombinant virus Chungbuk-Y275H-E119V (Influenza A virus, UniProt E3JK96, E119V/Y275H)
[4] = biological target: neuraminidase (NA) of recombinant virus Chungbuk-Y275H-N295S-I117V (Influenza A virus (A/Chungbuk/4448/2008(H1N1)), UniProt E3JK96, I117V/N295S/Y275H)
[5] = test system: NA of all the single, double, and triple mutants containing the E119V mutation
[6] = biological target: neuraminidase (NA) of recombinant virus Chungbuk-Y275-E119V (Influenza A virus, UniProt E3JK96, E119V)
[7] = test system: NA of all the single and double mutants containing tyrosine (Y) at NA residue 275 except Chungbuk-Y275-E119V
[8] = biological target: neuraminidase (NA) of recombinant virus Chungbuk-Y275H-N295S-I117M (Influenza A virus (A/Chungbuk/4448/2008(H1N1)), UniProt E3JK96, I117M/N295S/Y275H)
[9] = biological target: neuraminidase (NA) of recombinant virus Chungbuk-Y275-N295S-I223V (Influenza A virus, UniProt E3JK96, I223V/N295S)

CC(=O)N[C@H]1[C@H]([C@H](O)[C@H](O)CO)OC(C(=O)O)=C[C@@H]1N=C(N)N [Zanamivir]
NAI resistance phenotype [1]: susceptible
NAI resistance phenotype [2]: susceptible
NAI resistance phenotype [3]: important levels of resistance
NAI resistance phenotype [4]: susceptible
NAI resistance phenotype [5]: resistance
NAI resistance phenotype [6]: important levels of resistance
NAI resistance phenotype [7]: susceptibility
NAI resistance phenotype [8]: susceptible
NAI resistance phenotype [9]: susceptible
